Test results as given in the NIST ThermoML archive (doi:10.1016/j.jct.2012.12.010).

Assay: mn = molality of the nth substance listed, in mol/kg
Conditions: 101 kPa, Liquid; for speed of sound: Linear variable-path acoustic interferometer; for mass density: Pycnometric method

CC(C)[C@H](N)C(=O)O [L-valine] + O
Conditions	mass density [kg/m3]	speed of sound [m/s]
275.15 K, m1 = 0.034	1000.99	1416.5
275.15 K, m1 = 0.0672	1001.86	1420.9
275.15 K, m1 = 0.1028	1002.93	1425.7
275.15 K, m1 = 0.1349	1003.79	1429.9
275.15 K, m1 = 0.1675	1004.61	1434.3
275.15 K, m1 = 0.2021	1005.54	1438.9
275.15 K, m1 = 0.233	1006.4	1443
275.15 K, m1 = 0.2667	1007.34	1447.5
275.15 K, m1 = 0.3009	1008.25	1452
275.15 K, m1 = 0.3669	1009.99	1460.8
275.15 K, m1 = 0.4066	1011.08	1466.1
279.15 K, m1 = 0.0341	1000.9	1434.1
279.15 K, m1 = 0.0671	1001.87	1438.1
279.15 K, m1 = 0.1009	1002.75	1442.1
279.15 K, m1 = 0.1418	1003.8	1447
279.15 K, m1 = 0.1696	1004.51	1450.4
279.15 K, m1 = 0.2021	1005.51	1454.3
279.15 K, m1 = 0.2382	1006.36	1458.6
279.15 K, m1 = 0.2782	1007.44	1463.4
279.15 K, m1 = 0.2983	1007.95	1465.8
279.15 K, m1 = 0.3342	1008.96	1470.2
279.15 K, m1 = 0.3652	1009.77	1473.9
279.15 K, m1 = 0.3951	1010.57	1477.5
283.15 K, m1 = 0.0341	1000.61	1450.7
283.15 K, m1 = 0.0669	1001.41	1454.2
283.15 K, m1 = 0.1015	1002.33	1458
283.15 K, m1 = 0.1349	1003.08	1461.6
283.15 K, m1 = 0.1666	1004.17	1465
283.15 K, m1 = 0.2025	1005.15	1468.9
283.15 K, m1 = 0.2321	1006.04	1472.1
283.15 K, m1 = 0.2787	1007.06	1477.1
283.15 K, m1 = 0.297	1007.53	1479.1
283.15 K, m1 = 0.3314	1008.49	1482.8
283.15 K, m1 = 0.3663	1009.41	1486.6
283.15 K, m1 = 0.3972	1010.11	1489.9

C[C@@H](O)[C@H](N)C(=O)O [L-threonine] + O
Conditions	mass density [kg/m3]	speed of sound [m/s]
275.15 K, m1 = 0.0337	1001.56	1415.3
275.15 K, m1 = 0.0672	1003.12	1418.7
275.15 K, m1 = 0.1009	1004.6	1422
275.15 K, m1 = 0.1338	1006.09	1425.3
275.15 K, m1 = 0.1674	1007.23	1428.6
275.15 K, m1 = 0.2002	1008.62	1431.8
275.15 K, m1 = 0.2334	1010.1	1435.1
275.15 K, m1 = 0.2689	1011.67	1438.6
275.15 K, m1 = 0.3009	1012.89	1441.8
275.15 K, m1 = 0.3345	1014.39	1445.1
275.15 K, m1 = 0.3679	1015.8	1448.4
275.15 K, m1 = 0.4054	1017.24	1452.2
279.15 K, m1 = 0.0337	1001.55	1433.1
279.15 K, m1 = 0.0671	1002.96	1436.2
279.15 K, m1 = 0.101	1004.52	1439.3
279.15 K, m1 = 0.1342	1005.69	1442.3
279.15 K, m1 = 0.1665	1006.97	1445.3
279.15 K, m1 = 0.2002	1008.49	1448.4
279.15 K, m1 = 0.235	1009.98	1451.6
279.15 K, m1 = 0.2673	1011.46	1454.5
279.15 K, m1 = 0.2996	1012.62	1457.5
279.15 K, m1 = 0.3683	1015.5	1463.8
279.15 K, m1 = 0.4005	1016.91	1466.8
283.15 K, m1 = 0.0224	1000.69	1449
283.15 K, m1 = 0.0677	1002.52	1453.1
283.15 K, m1 = 0.101	1004.25	1456.1
283.15 K, m1 = 0.1362	1005.58	1459.2
283.15 K, m1 = 0.1665	1006.81	1461.9
283.15 K, m1 = 0.2005	1008.32	1465
283.15 K, m1 = 0.2345	1009.56	1468.1
283.15 K, m1 = 0.2725	1011.21	1471.5
283.15 K, m1 = 0.2996	1012.33	1473.9
283.15 K, m1 = 0.3351	1013.76	1477.1
283.15 K, m1 = 0.3677	1015.01	1480
283.15 K, m1 = 0.3928	1016.16	1482.3

N=C(N)NCCC[C@H](N)C(=O)O [L-arginine] + O
Conditions	mass density [kg/m3]	speed of sound [m/s]
275.15 K, m1 = 0.0381	1002.25	1416.9
275.15 K, m1 = 0.0808	1004.4	1422.5
275.15 K, m1 = 0.1223	1006.6	1427.9
275.15 K, m1 = 0.1659	1008.86	1433.5
275.15 K, m1 = 0.2092	1010.74	1439.2
275.15 K, m1 = 0.2503	1012.81	1444.5
275.15 K, m1 = 0.2909	1014.82	1449.8
275.15 K, m1 = 0.3371	1017.05	1455.8
275.15 K, m1 = 0.3742	1018.75	1460.6
275.15 K, m1 = 0.4153	1020.74	1465.9
275.15 K, m1 = 0.4529	1022.49	1470.8
275.15 K, m1 = 0.5067	1024.97	1477.8
279.15 K, m1 = 0.0381	1002.12	1434.5
279.15 K, m1 = 0.0808	1004.33	1439.6
279.15 K, m1 = 0.1225	1005.88	1444.5
279.15 K, m1 = 0.1847	1009.11	1451.9
279.15 K, m1 = 0.2092	1010.49	1454.8
279.15 K, m1 = 0.25	1012.51	1459.7
279.15 K, m1 = 0.2932	1014.5	1464.8
279.15 K, m1 = 0.3459	1017.1	1471.1
279.15 K, m1 = 0.3742	1018.39	1474.4
279.15 K, m1 = 0.4177	1020.39	1479.6
279.15 K, m1 = 0.4601	1022.35	1484.6
279.15 K, m1 = 0.5176	1025.01	1491.4
283.15 K, m1 = 0.0379	1001.53	1451.4
283.15 K, m1 = 0.0806	1003.83	1456.3
283.15 K, m1 = 0.1228	1005.96	1461.2
283.15 K, m1 = 0.1755	1008.59	1467.2
283.15 K, m1 = 0.2052	1009.81	1470.7
283.15 K, m1 = 0.2496	1012.14	1475.8
283.15 K, m1 = 0.291	1014.12	1480.5
283.15 K, m1 = 0.3386	1016.31	1486
283.15 K, m1 = 0.3757	1017.99	1490.3
283.15 K, m1 = 0.416	1019.92	1495
283.15 K, m1 = 0.4566	1021.75	1499.6
283.15 K, m1 = 0.5031	1023.84	1505
